Assays:
Type in all cases: cell-based, human
L1CAM [1] = test: L1CAM expression in PT45-P1res cells (western blotting, flow cytometry, real-time PCR); details: for L1CAM expression (full-length 220 kDa and 32 kD fragment): inhibitor 10 μmol/L, 24 hours
Description: After washing in PBS, cells grown in 6-well culture plates were detached with 5 mmol/L EDTA in PBS and then washed with PBS once again. Blocking was conducted in 1% BSA/PBS for 60 min. at room temperature followed by incubation with the anti L1CAM antibody L1-11A or an isotype matched control antibody (1:1000, in 1% BSA/PBS) at 4° C. overnight. Then, cells were washed three times in PBS followed by incubation (60 min, 37° C.) with a goat-anti mouse antibody conjugated with Alexa flour 488 (Dianova, Hamburg, Germany) diluted 1:500 in 1% BSA/PBS. After washing in PBS, cells were resuspended in 500 μL PBS and analysed by fluorescence flow cytometry.
(§1) Cells were seeded into 6 well and 12 well plates, respectively, and transfected or treated as indicated. Then, cells were washed once with PBS and lysed with 1 volume of 2×SDS sample buffer (128 mmol/L Tris-Base, 4.6% SDS, 10% glycerol). Samples were heated for 5 minutes at 95° C. and put on ice for 2 minutes. Protein concentrations were determined using the Dc Protein assay (BioRad). Ten μg of protein adjusted to an appropriate volume of SDS sample buffer containing 0.2 mg/mL bromphenolblue (Serva, Heidelberg, Germany) and 2.5% β-mercaptoethanol (Biomol, Hamburg, Germany) were submitted to electrophoresis on a 4-20% ProGel-Tris-glycin-gel (Anamed, Darmstadt, Germany) and immunoblotting was performed as described previously (Arlt et al, 2001). For detection of L1CAM, a monoclonal antibody (clone UJ127 from Acris Antibodies) was diluted at a concentration of 0.4 μg/mL in 5% nonfat milk powder and 0.05% Tween in TBS (blotto) and incubated overnight at 4° C. For detection of the cytoplasmic domain of L1CAM, the pcytL1 antibody (Mechtersheimer et al., 2001) was used at a concentration of 1 μg/mL in blotto and incubated overnight at 4° C. As control of equal protein load, a polyclonal rabbit antibody for HSP90 (Santa Cruz, Heidelberg, Germany) was diluted 1:2000 in blotto. The mouse anti CD51 antibody from Beckman Coulter GmbH (Krefeld, Germany) was used at a concentration of 1:500 in blotto for detection of human αv integrin. Incubation with the primary antibodies was performed overnight at 4° C. For detection of the primary antibodies, anti-mouse and anti-rabbit HRP-linked antibodies (Cell Signaling), respectively, were used at a dilution of 1:2000 in blotto-TBST at room temperature for 1 hour. After washing in TBST, blots were developed using the LumiGlo peroxidase detection kit (Cell Signaling).
2 μg of total RNA were reverse-transcribed into single-stranded cDNA, as described previously (Schafer et al., 1999). Two μL of cDNA and 0.2 μmol/L gene-specific primers were adjusted with RNAse-free water to a volume of 15 μL. To this mixture, 15 μL of iQ SYBR Green Supermix (BioRad) were added. Primers for the detection of L1CAM (Gavert et al., 2005) were used under the following conditions: 95° C./1 min; 95° C./1 min, 52° C./30 see, 72° C./30 see for 40 cycles; 72° C./10 min. Primers for the detection of iNOS were from Biosource (Ratingen, Germany) and used under the following PCR conditions: 95° C./5 min; 95° C./45 sec, 60° C./45 sec, 72° C./45 sec for 40 cycles; 72° C./10 min. For control, β-actin was amplified in parallel using primers from BD Biosciences Clontech. […] Data were collected during annealing steps and were further analysed by using the i-Cycler iQ Optical system software (BioRad). All samples were analysed in duplicates and data are expressed as amount of mRNA in arbitrary units.

[2] = tested on: L1CAM transfected PT45-P1 cells; test: Caspase-3/-7 assay in L1CAM transfected PT45-P1 cells; details: inhibitor 10 μmol/L, 20 μg/mL etoposide 24 hours
Description: (§2) PT45-P1res cells (a,b) or PT45-P1 cells transfected with L1CAM or an empty control vector (mock) (c,d) were left untreated (w/o) or were either treated with Tapi-0, Tapi-1, GM6001 or L685,458 (each 10 μmol/L) for 24 hours. (a,c) Cellular lysates were subjected to western blotting using either the antibody clone UJ127 from Acris detecting only full-length L1CAM or the pcytL1 antibody detecting also the cytoplasmic part of L1CAM. HSP90 was detected as a control for equal protein load. (b,d) Thirty minutes after treatment with the respective inhibitor, cells were either left untreated or treated with 20 μg/mL etoposide for 24 hours. Then, cells were analysed for caspase-3/-7 activity expressed as n-fold induction of caspase-3/-7 activity of basal. Means±SD from three independent experiments are shown. * indicates p<0.05.
(§3) As described elsewhere (Sebens Müerköster et al., 2006), apoptosis was determined by staining with annexinV/propidium iodide (Biocarta, Hamburg, Germany) and subsequent fluorescence flow cytometry (GalaxyArgon Plus; DAKO Cytomation, Hamburg, Germany) using the FLOMAX software, and by the detection of caspase-3/-7 activity using a homogeneous luminescent assay (Promega, Mannheim, Germany). All samples were measured in duplicates.
(§4) For L1CAM transfection, PT45-P1 cells were seeded into 6 well plates (2×10^5 cells/well), were grown overnight, followed by transfection with 5 μL/well DIMRIE reagent (Invitrogen) and 0.6 μg/well of the following plasmids: pcDNA3.1 (mock) or pcDNA3.1-L1CAM (L1CAM). Upon transfection for 18 hours, 1 mL medium containing 20% FCS was added and cells were left untreated or were treated as indicated for further 24 hours. For knock down of L1CAM, PT45-P1res cells were seeded into 12 well plates (1×10^5 cells/well), were grown overnight followed by transfection with 12 μL/well RNAiFect reagent (Invitrogen) and 2 μg/well of either Stealth negative control siRNA (Invitrogen) or Stealth L1CAM siRNA (Invitrogen). After overnight transfection, cells were either left untreated or treated as indicated for further 24 hours.

PT45-P1res cells = test: Caspase-3/-7 assay in PT45-P1res cells; details: for apoptosis induction after etoposide treatment (caspase-3/-7): inhibitor 10 μmol/L, 20 μg/mL etoposide 24 hours
Description: (a) PT45-P1 res cells were transfected with control siRNA or with two L1CAM specific siRNAs. Western blotting for the detection of full-length L1CAM or of HSP90 as a control for equal protein load was performed (upper panel). In parallel, siRNA transfected PT45-P1res cells were treated with 20 μg/mL etoposide or not for 24 hours and caspase-3/-7 activity was determined. (b) siRNA transfected PT45-P1res cells were subjected to L1CAM immunostaining (L1-11A antibody) or staining with an isotype matched control antibody followed by flow cytometry. One representative histogram is shown. (c) siRNA transfected PT45-P1res cells were analysed by western blotting for the detection of full-length L1 CAM, αv-integrin or HSP90 (d) After overnight siRNA transfection, cells were either left untreated or were either treated with 20 μg/mL etoposide or with 5 μg/mL gemcitabine for 24 hours, followed by either AnnexinV/PI staining and flow cytometry (AnnexinV positive cells over basal) or by caspase-3/-7 assay (n-fold induced caspase-3/-7 activity of basal). (e) PT45-P1res cells were either left untreated (w/o) or were treated with 20 μg/mL etoposide in the absence (w/o) or presence of either 5 μg/mL anti L1CAM antibody (Clone L1-11A) or 5 μg/mL isotype matched control antibody. After 24 hours, cells were analysed by AnnexinV/PI staining or by caspase-3/-7 assay. Means±SD from three independent experiments are shown. * indicates p<0.05.
as §3, §4

L1CAM [3] = test: L1CAM cleavage by western blotting in L1CAM transfected PT45-P1 cells; details: inhibitor 10 μmol/L, 24 hours
Description: as §2, §1

NO release = test: NO-assay in supernatants of PT45-P1res cells; details: 250 ng/mL IL1-RA 24 hours
Description: PT45-P1res cells were transfected with a control siRNA or with a L1CAM specific siRNA. (a) RNA from transfected PT45-P1res cells was subjected to RT and subsequent Real-time PCR using primers specific for iNOS. In parallel, a Real-time PCR was conducted for β-actin, which was used as a control. Results from one representative out of three experiments are shown. Data are expressed as amount of mRNA in arbitrary units. Each sample was measured in duplicates. (b) siRNA transfected cells (16 h) were either left untreated or were treated with 250 ng/mL IL1RA for 24 hours. Then, supernatants were cleared and subjected to a commercial NO assay. The amount of NO was normalized to equal cell number which was determined in parallel (expressed as μmol NO/10^5 cells). (c) siRNA transfected cells (16 h) were either left untreated or were treated with 250 ng/mL IL1-RA and 20 μg/mL etoposide, either alone or in combination for 24 hours. Then, cells were analysed for caspase-3/-7 activity expressed as n-fold induced caspase-3/-7 activity of basal. Means±SD from three independent experiments are shown. * indicates p<0.05.
Cells were seeded for transfection and cultured as described above. […] NO secreted into cell culture supernatants was quantified using the Total nitric oxide (NO) calorimetric assay (R&D Systems). […] Concentrations of measured NO were normalized to the cell numbers determined in parallel.

[4] = Induction of apoptosis, Nicoletti staining, in HEK293 cells; details: human; wild-type (parental) HEK293; C2-ceramide 40 μM or staurosporine 2 μM, 24 h, serum-free, Nicoletti staining; read-out: cells still viable after treatment
Description: (§5) Cells (1×10^5 cells per well) were cultured in duplicate in 6 well culture plates and, after washing once with PBS, incubated for the indicated timepoints with or without apoptotic stimuli in serum-free medium. Staurosporine (2 μM), C2-ceramide (40 μM) or cisplatin (17 μM) were used as apoptotic reagents. For hypoxia studies, cells were incubated for different time points under hypoxic conditions (1% O2) using a Reming Bioinstruments chamber and oxygen regulator (Reming Bioinstruments, Redfield, N.Y.).
(§6) For quantification of DNA fragmentation, supernatants were centrifuged at 200×g. The cell pellet was washed once in PBS (pH 7.4) and lysed in a hypotonic lysis buffer (0.1% sodium citrate, 0.1% Triton X-100, 50 μg/ml propidiumiodite) at 4° C. overnight. The nuclei were then analyzed for DNA content by flow cytometry. The staining of cells for flow cytometry with mAbs and PE-conjugated secondary antibodies has been described. Cells were analysed with a FACScan using Cellquest or FlowJo software from Becton Dickinson (Heidelberg, Germany).

[5] = Induction of apoptosis, Nicoletti staining, in HEK293-hL1 cells; details: human; L1-expressing HEK293; C2-ceramide 40 μM or staurosporine 2 μM, 24 h, serum-free, Nicoletti staining; read-out: cells still viable after treatment
Description: as §5, §6

For `CC(C)C[C@H](NC(=O)[C@H](Cc1ccccc1)C[C@@H](O)[C@H](Cc1ccccc1)NC(=O)OC(C)(C)C)C(=O)N[C@@H](Cc1ccccc1)C(N)=O` [L685,458], the “L1CAM expression (full-length 220 kDa and 32 kD fragment)” value (L1CAM [1]) was “neither of the inhibitors changed L1 CAM expression”, the “apoptosis inducing effect of etoposide (caspase-3/-7)” value (“apoptosis inducing effect” for short) [2] was “nor affect the apoptosis inducing effect of etoposide” and the “apoptosis induction after etoposide treatment (caspase-3/-7)” value (from here on “apoptosis induction”) (PT45-P1res cells) was “did not significantly affect apoptosis induction after etoposide treatment”. The “expression of full-length L1CAM and level of the 32 kD fragment” value (from here on “expression … of the 32 kD fragment”) (L1CAM [3]) was “did neither influence the expression of full-length L1CAM nor increased the level of the 32 kD fragment”.
With “IL1-RA: Interleukin 1 receptor antagonist from R&D Systems” the “L1CAM expression (mRNA and protein)” value (L1CAM [1]; 250 ng/mL IL1-RA, 6 or 24 hours) was “reduced L1CAM expression”, the “etoposide induced caspase activation” value (PT45-P1res cells; 250 ng/mL IL1-RA, control transfected cells) was “increased” and the NO levels (NO release; cells with L1CAM knock down) was “no further reducing effect”. The NO levels (NO release; control siRNA transfected cells) was “could be decreased”.
For `CNC(=O)[C@H](Cc1c[nH]c2ccccc12)NC(=O)[C@@H](CC(=O)NO)CC(C)C` [GM6001], the “L1CAM expression (full-length 220 kDa and 32 kD fragment)” value (L1CAM [1]) was “neither of the inhibitors changed L1 CAM expression”, the “apoptosis inducing effect” value [2] was “nor affect the apoptosis inducing effect of etoposide” and the “apoptosis induction” value (PT45-P1res cells) was “did not significantly affect apoptosis induction after etoposide treatment”. The “expression … of the 32 kD fragment” value (L1CAM [3]) was “did neither influence the expression of full-length L1CAM nor increased the level of the 32 kD fragment”.
For `CC(C)C[C@H](CC(=O)NO)C(=O)N[C@@H](Cc1ccc2ccccc2c1)C(=O)N[C@@H](C)C(=O)NCCN` [Tapi-1], the “L1CAM expression (full-length 220 kDa and 32 kD fragment)” value (L1CAM [1]) was “neither of the inhibitors changed L1 CAM expression”, the “apoptosis inducing effect” value [2] was “nor affect the apoptosis inducing effect of etoposide” and the “apoptosis induction” value (PT45-P1res cells) was “did not significantly affect apoptosis induction after etoposide treatment”. For the same compound, the “expression … of the 32 kD fragment” value (L1CAM [3]) was “did neither influence the expression of full-length L1CAM nor increased the level of the 32 kD fragment”.
In the case of `CC(=O)NC(C(=O)O)C(C)(C)SN=O` (racemic) [SNAP, S-Nitroso-N-acetyl-D,L-penicillamine], the “increased caspase activity during L1CAM knock-down” value (PT45-P1res cells; 200 μmol/L SNAP with 20 μg/mL etoposide, 24 hours) is reported as “completely reversed the increased caspase activity”.
For `CN[C@@H]1C[C@H]2O[C@@](C)([C@@H]1OC)n1c3ccccc3c3c4c(c5c6ccccc6n2c5c31)C(=O)NC4` [staurosporine], the viability at 24 h, 2 μM [4] was 59% and the viability at 24 h, 2 μM [5] was 77%.

Source: US20080299123A1, “TREATMENT OF CHEMOTHERAPY- OR RADIOTHERAPY-RESISTANT TUMORS” (Deutsches Krebsforschungszentrum Stiftung des offentlichen …, priority 2006, published 2008)
